In PMC4658274 (The Analyst, 2015):
pIC50, pKi: −log10 of the molar value.

Molecular target: hERG potassium channel (Homo sapiens, UniProt Q12809)
Assay: radio-ligand competitive binding assay

Sequence of hERG potassium channel (Q12809 whole entry): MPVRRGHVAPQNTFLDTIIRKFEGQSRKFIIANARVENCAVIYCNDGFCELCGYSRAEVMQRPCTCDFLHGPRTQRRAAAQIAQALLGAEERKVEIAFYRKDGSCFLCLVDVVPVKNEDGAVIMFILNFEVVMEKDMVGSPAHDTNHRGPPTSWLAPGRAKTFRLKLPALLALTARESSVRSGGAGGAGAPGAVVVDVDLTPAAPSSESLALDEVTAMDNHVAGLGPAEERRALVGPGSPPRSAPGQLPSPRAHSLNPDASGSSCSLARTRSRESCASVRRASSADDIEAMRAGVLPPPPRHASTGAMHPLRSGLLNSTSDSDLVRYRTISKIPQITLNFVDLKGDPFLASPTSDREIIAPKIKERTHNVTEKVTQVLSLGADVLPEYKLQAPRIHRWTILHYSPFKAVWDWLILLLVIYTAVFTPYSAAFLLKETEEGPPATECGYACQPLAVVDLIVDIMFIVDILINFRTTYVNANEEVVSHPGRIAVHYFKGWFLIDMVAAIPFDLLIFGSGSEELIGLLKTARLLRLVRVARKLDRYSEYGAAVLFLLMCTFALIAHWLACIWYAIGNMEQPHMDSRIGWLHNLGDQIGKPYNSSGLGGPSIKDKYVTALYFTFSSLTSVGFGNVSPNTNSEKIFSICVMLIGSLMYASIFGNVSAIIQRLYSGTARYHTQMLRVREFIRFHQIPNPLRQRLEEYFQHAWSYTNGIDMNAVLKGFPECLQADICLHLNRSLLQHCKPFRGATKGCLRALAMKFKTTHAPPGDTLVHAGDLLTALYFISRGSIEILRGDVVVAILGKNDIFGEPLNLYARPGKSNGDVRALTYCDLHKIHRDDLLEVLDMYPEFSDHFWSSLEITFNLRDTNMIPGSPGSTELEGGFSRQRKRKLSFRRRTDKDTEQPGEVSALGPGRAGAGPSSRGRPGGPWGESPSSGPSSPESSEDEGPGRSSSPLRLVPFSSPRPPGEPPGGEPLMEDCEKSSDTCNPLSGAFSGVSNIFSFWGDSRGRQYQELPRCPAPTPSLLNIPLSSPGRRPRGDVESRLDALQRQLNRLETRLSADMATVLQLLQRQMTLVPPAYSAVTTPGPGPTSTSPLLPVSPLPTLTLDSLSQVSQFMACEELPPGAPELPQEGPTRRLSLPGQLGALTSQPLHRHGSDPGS

SMILES: CN1CCN(CCCCN2C(=O)CN(/N=C/c3ccc(-c4ccc(Cl)cc4)o3)C2=O)CC1 [Azimilide]
- pIC50: 5.72
- pKi: 6.02
